Test system: not given
Test: not given
Settings: not given
With CCCC[C@H](CN(O)C=O)C(=O)N[C@H](C(=O)OC)C(C)(C)C [Example 5, 2S-{2R-[(Formyl-hydroxy-amino)-methyl]-hexanoylamino}-3,3-dimethyl Butyric Acid Methyl Ester] the melting point was 63.5 to 64.5 °C. CCCC[C@H](CN(O)C=O)C(=O)N[C@H](C(=O)OCC)c1ccccc1 [Example 10, 2S-{2R-[(Formyl-hydroxy-amino)-methyl]-hexanoylamino}-2-phenyl Acetic Acid Ethyl Ester] showed a melting point of 134 to 136 °C. In the case of CCCC[C@H](CN(O)C=O)C(=O)N[C@H](C(=O)OC(C)C)c1ccccc1 [Example 11, S-{2R-[(Formyl-hydroxy-amino)-methyl]-hexanoylamino}-2-phenyl Acetic Acid Iso-Propyl Ester], the melting point is reported as 142 to 145 °C. Work on CCCC[C@H](CN(O)C=O)C(=O)N[C@H](C(=O)OCC)C(C)(C)C [Example 12, 2S-{2R-[(Formyl-hydroxy-amino)-methyl]-hexanoylamino}-3,3-dimethyl Butyric Acid Ethyl Ester] yielded a melting point of 85 to 87 °C. Compound CCCC[C@H](CN(O)C=O)C(=O)N[C@H](C(=O)OC1CCCC1)c1ccccc1 [Example 13, S-{2R-[(Formyl-hydroxy-amino)-methyl]-hexanoylamino}-2-phenyl Acetic Acid Cyclo-Pentyl Ester] has a melting point of 119 to 120 °C. CCCC[C@H](CN(O)C=O)C(=O)N[C@@H](Cc1ccccc1)C(=O)OC(C)(C)C [Example 22, 2S-{2R-[(Formyl-hydroxy-amino)-methyl]-hexanoylamino}-3-phenyl-propionic Acid Tert-Butyl Ester] gave a melting point of 95 to 98 °C.

Test system: human histiocytic lymphoma cell line (U937)
Test: U937 cell proliferation assay (methyl-3H thymidine incorporation)
Format: cell-based
Settings: Homo sapiens, U-937, U937 cells; test compound 6 μM; 72 hours in culture, 3 hours pulse; control DMSO 0.08%; n=6
Procedure: The compounds of examples 1 to 10 were tested the following cell proliferation assay, to determine their respective capacities to inhibit proliferation.
A human histiocytic lymphoma cell line (U937) was seeded into 30 mm^2 tissue culture wells, in the appropriate culture medium supplemented with 10% fetal calf serum at a density of 250 cells/mm^2. Six hours later the test compounds were added in the same culture medium to the cells to give a final concentration of 6 μM. Control wells contained cells supplemented with the same culture medium containing the equivalent amount of drug vehicle, which in this case was DMSO at a final concentration of 0.08%. After 72 hours in culture the cells were pulsed for 3 hours with methyl-^3H Thymidine (20 μCi/ml) and then harvested onto filter mats and DNA associated radioactivity counted. Results are expressed as percentage of control methyl-^3H Thydimine incorporation (n=6±1 stdv).
For CC(C)C[C@@H](C(=O)N[C@@H](Cc1ccccc1)C(=O)OC1CCCC1)C(C)N(O)C=O (single isomer, unassigned) [Example 2, diastereomer A], the activity at 6 µM was 21%. In the case of CCCC[C@H](CN(O)C=O)C(=O)N[C@H](C(=O)OC1CCCC1)C(C)(C)C [Example 3, 2S-{2R-[(Formyl-hydroxy-amino)-methyl]-hexanoylamino}-3,3-dimethyl Butyric Acid Cyclopentyl Ester], the activity at 6 µM is reported as 80%. CCCC[C@H](CN(O)C=O)C(=O)N[C@@H](Cc1ccccc1)C(=O)OC1CCCC1 [Example 4, S-{2R-[(Formyl-hydroxy-amino)-methyl]-hexanoylamino}-3-phenyl-propionic Acid Cyclopentyl Ester] gave an activity at 6 µM of 0%. In the case of CCCC[C@H](CN(O)C=O)C(=O)N[C@H](C(=O)OC)C(C)(C)C [Example 5, 2S-{2R-[(Formyl-hydroxy-amino)-methyl]-hexanoylamino}-3,3-dimethyl Butyric Acid Methyl Ester], the activity at 6 µM is reported as 86%. Work on CCCC[C@H](CN(O)C=O)C(=O)N[C@@H](Cc1ccccc1)C(=O)OC [Example 7] yielded an activity at 6 µM of 0%. Work on CCCC[C@H](CN(O)C=O)C(=O)N[C@@H](Cc1ccccc1)C(=O)OCC [Example 8, 2S-{2R-[(Formyl-hydroxy-amino)-methyl]-hexanoylamino)-3-phenyl-propionic Acid Ethyl Ester] yielded an activity at 6 µM of 0%. In the case of CCCC[C@H](CN(O)C=O)C(=O)N[C@H](C(=O)OC(C)C)C(C)(C)C [Example 9, 2S-{2R-[(Formyl-hydroxy-amino)-methyl]-hexanoylamino}-3,3-dimethyl Butyric Acid Iso-Propyl Ester], the activity at 6 µM is reported as 81%. With CCCC[C@H](CN(O)C=O)C(=O)N[C@H](C(=O)OCC)c1ccccc1 [Example 10, 2S-{2R-[(Formyl-hydroxy-amino)-methyl]-hexanoylamino}-2-phenyl Acetic Acid Ethyl Ester] the activity at 6 µM was 7%. In the case of CCCC[C@H](CN(O)C=O)C(=O)N[C@H](C(=O)OC(C)C)c1ccccc1 [Example 11, S-{2R-[(Formyl-hydroxy-amino)-methyl]-hexanoylamino}-2-phenyl Acetic Acid Iso-Propyl Ester], the activity at 6 µM is reported as 36%. Work on CCCC[C@H](CN(O)C=O)C(=O)N[C@H](C(=O)OCC)C(C)(C)C [Example 12, 2S-{2R-[(Formyl-hydroxy-amino)-methyl]-hexanoylamino}-3,3-dimethyl Butyric Acid Ethyl Ester] yielded an activity at 6 µM of 77%. CCCC[C@H](CN(O)C=O)C(=O)N[C@H](C(=O)OC1CCC1)C(C)(C)C [Example 14, 2S-{2R-[(Formyl-hydroxy-amino)-methyl]-hexanoylamino}-3,3-dimethyl Butyric Acid Cyclobutyl Ester] showed an activity at 6 µM of 74%. For CCCC[C@H](CN(O)C=O)C(=O)N[C@H](C(=O)OC1CCCCC1)C(C)(C)C [Example 15, 2S-{2R-[(Formyl-hydroxy-amino)-methyl]-hexanoylamino}-3,3-dimethyl Butyric Acid Cyclohexyl Ester], the activity at 6 µM was 75%. CCCC[C@H](CN(O)C=O)C(=O)N[C@H](C(=O)OCCOC)C(C)(C)C [Example 16, 2S-{2R-[(Formyl-hydroxy-amino)-methyl]-hexanoylamino}-3,3-dimethyl Butyric Acid 2-methoxy-ethyl Ester] gave an activity at 6 µM of 89%. Compound CCCC[C@H](CN(O)C=O)C(=O)N[C@H](C(=O)OCC1CCCC1)C(C)(C)C [Example 18, 2S-{2R-[(Formyl-hydroxy-amino)-methyl]-hexanoylamino}-3,3-dimethyl Butyric Acid Cyclopentylmethyl Ester] has an activity at 6 µM of 60%. Work on CCCC[C@H](CN(O)C=O)C(=O)N[C@@H](Cc1ccccc1)C(=O)OC(C)C [Example 19, 2S-{2R-[(Formyl-hydroxy-amino)methyl]-hexanoylamino}-3-phenyl-propionic Acid Iso-Propyl Ester] yielded an activity at 6 µM of 0%. In the case of CCCC[C@H](CN(O)C=O)C(=O)N[C@H](C(=O)OC)c1ccccc1 [Example 20, S-{2R-[(Formyl-hydroxy-amino)-methyl]-hexanoylamino}-2-phenyl Acetic Acid Methyl Ester], the activity at 6 µM is reported as 53%. CCCC[C@H](CN(O)C=O)C(=O)N[C@H](C(=O)OC(C)(C)C)c1ccccc1 [Example 21, S-{2R-[(Formyl-hydroxy-amino)-methyl]-hexanoylamino}-2-phenyl Acetic Acid Tert-Butyl Ester] showed an activity at 6 µM of 90%. CCCC[C@H](CN(O)C=O)C(=O)N[C@@H](Cc1ccccc1)C(=O)OC(C)(C)C [Example 22, 2S-{2R-[(Formyl-hydroxy-amino)-methyl]-hexanoylamino}-3-phenyl-propionic Acid Tert-Butyl Ester] showed an activity at 6 µM of 53%. For CCC[C@@H]([C@@H](CC(C)C)C(=O)N[C@@H](COC(C)(C)C)C(=O)OC1CCCC1)N(O)C=O [Example 23, 3-tert-Butoxy-2S-[3S-(formyl-hydroxy-amino)-2R-isobutyl-hexanoylamino]-propionic Acid Cyclopentyl Ester], the activity at 6 µM was 5%. In the case of CCC[C@@H]([C@@H](Cc1ccccc1)C(=O)N[C@@H](COC(C)(C)C)C(=O)OC1CCCC1)N(O)C=O [Example 24, 2S-[2R-Benzyl-3S-(formyl-hydroxy-amino)-hexanoylamino]-3-tert-butoxypropionic Acid Cyclopentyl Ester], the activity at 6 µM is reported as 0%. For CCC[C@@H]([C@@H](CC(C)C)C(=O)N[C@H](C(=O)OCC)c1ccccc1)N(O)C=O [Example 25, S-[3S-(Formyl-hydroxy-amino)-2R-isobutyl-hexanoylamino]-phenyl-acetic Acid Ethyl Ester], the activity at 6 µM was 3%. CCC[C@@H]([C@@H](CC(C)C)C(=O)N[C@H](C(=O)OCCOC)c1ccccc1)N(O)C=O [Example 26, S-[3S-(Formyl-hydroxy-amino)-2R-isobutyl-hexanoylamino]-phenyl-acetic Acid Methoxyethyl Ester] gave an activity at 6 µM of 10%. With CCC[C@@H]([C@@H](Cc1ccccc1)C(=O)N[C@@H](Cc1ccccc1)C(=O)OC1CCCC1)N(O)C=O [Example 27, 2S-[2R-Benzyl-3S-(formyl-hydroxy-amino)hexanoylamino]-3-phenyl-propionic Acid Cyclopentyl Ester] the activity at 6 µM was 0%. Work on CCC[C@@H]([C@@H](Cc1ccccc1)C(=O)N[C@H](C(=O)OC1CCCC1)c1ccccc1)N(O)C=O [Example 28, S-[2R-Benzyl-3S-(formyl-hydroxy-amino)hexanoylamino]-phenyl-acetic Acid Cyclopentyl Ester] yielded an activity at 6 µM of 0%. Compound CCC[C@@H]([C@@H](Cc1ccccc1)C(=O)N[C@H](C(=O)OCCOC)c1ccccc1)N(O)C=O [Example 29, S-[2R-Benzyl-3S-(formyl-hydroxy-amino)hexanoylamino]-phenyl-acetic Acid Methoxyethyl Ester] has an activity at 6 µM of 0%. In the case of CCC[C@@H]([C@@H](CC(C)C)C(=O)N[C@H](C(=O)OCC1CCCC1)c1ccccc1)N(O)C=O [Example 32, S-[3S-(Formyl-hydroxy-amino)-2R-isobutyl-hexanoylamino]-phenyl-acetic Acid Cyclopentylmethyl Ester], the activity at 6 µM is reported as 8%. CCC[C@@H]([C@@H](CC(C)C)C(=O)N[C@H](C(=O)OC1CCCC1)c1ccccc1)N(O)C=O [Example 33, S-[3S-(Formyl-hydroxy-amino)-2R-isobutyl-hexanoylamino]-phenyl-acetic Acid Cyclopentyl Ester] showed an activity at 6 µM of 0%.

Same assay, conditions: U937 cells; 6 μM; comparison compound
With O=c1[nH]cc(F)c(=O)[nH]1 [5-fluorouracil, reference compound] the “activity in the U937 assay, % of that observed with the vehicle alone” value was 50%.

Same assay, conditions: U937 cells; test compound 6 μM; 72 hours in culture, 3 hours pulse; control DMSO 0.08%; n=6
In the case of CCCC[C@H](CN(O)C=O)C(=O)N[C@H](C(=O)OC1CCCC1)C(C)C [Example 6, 2S-{2R-[(Formyl-hydroxy-amino)-methyl]-hexanoylamino}-3-methyl Butyric Acid Cyclo-Pentyl Ester], the “% of Control methyl-^3H Thymidine Incorporation” value is reported as 0%.

Same assay, conditions: U937 cells; test compound 6 μM; 72 hours in culture, 3 hours pulse; control DMSO 0.08%; n=6; 6 µM
For O=CN(O)CC(Cc1ccccc1)C(=O)N[C@@H](Cc1ccccc1)C(=O)OC1CCCC1 (single isomer, unassigned) [Example 1, diastereomer A, 2S-[2-benzyl-3-(formyl-hydroxy-amino)propionylamino]-3-phenyl-propionic acid cyclopentyl ester], the “% of Control methyl-^3H Thymidine Incorporation” value was 0%. In the case of O=CN(O)CC(Cc1ccccc1)C(=O)N[C@@H](Cc1ccccc1)C(=O)OC1CCCC1 (single isomer, unassigned) [Example 1, diastereomer B, 2S-[2-benzyl-3-(formyl-hydroxy-amino)propionylamino]-3-phenyl-propionic acid cyclopentyl ester], the “% of Control methyl-^3H Thymidine Incorporation” value is reported as 73%. For CC(C)C[C@@H](C(=O)N[C@@H](Cc1ccccc1)C(=O)OC1CCCC1)C(C)N(O)C=O (single isomer, unassigned) [Example 2, diastereomer B], the “% of Control methyl-^3H Thymidine Incorporation” value was 17%.

From patent US20030149084A1, “Cytostatic agents” (priority 1998, published 2003)
